Key:
[1] = test system: brains, heart, liver, muscle, and DRG of the NHPs; experiment: Maturation of TTM-001 and TTM-002 capsids, NGS enrichment in NHP tissues; format: in vivo; details: relative to AAV9 control
Summary of the method: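 Variants carry mutations within and flanking the loop IV peptide insert: positions 450–466 were triplet-randomized, while positions 449–466 received low-frequency point mutations. The combined pool went into two NHPs, and each peptide was scored by NGS enrichment ratio against AAV9.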

brain = experiment: Matured TTM-001 and TTM-002 variants, NGS enrichment in mouse brain; format: in vivo, mice; details: relative to AAV9 control
[2] = NGS fold-enrichment of RNA, NHP brain
[3] = NGS fold-enrichment, DRG of NHPs
[4] = NGS fold-enrichment, NHP liver DNA
[5] = NGS fold-enrichment, NHP liver RNA
[6] = NGS fold-enrichment, NHP muscle
[7] = NGS fold-enrichment, RNA, brain of NHPs
[8] = NGS fold-enrichment, heart of NHPs
[9] = NGS fold-enrichment, liver DNA of NHPs
[10] = NGS fold-enrichment, liver RNA of NHPs
[11] = NGS fold-enrichment, muscle of NHPs
[12] = NGS fold-enrichment, brain of mice
[13] = NGS fold-enrichment, mouse brain

Sequence	Fold Enrichment relative to AAV9, Brain (NHP) [1, 2] [fold]	Fold Enrichment relative to AAV9, DRG (NHP) [1, 3] [fold]	Fold Enrichment relative to AAV9, DRG (NHP) ([1]; NGS fold-enrichment, NHP DRG) [fold]	Fold Enrichment relative to AAV9, Heart (NHP) ([1]; NGS fold-enrichment, NHP heart) [fold]	Fold Enrichment relative to AAV9, Liver DNA (NHP) [1, 4] [fold]	Fold Enrichment relative to AAV9, Liver RNA (NHP) [1, 5] [fold]	Fold Enrichment relative to AAV9, Muscle (NHP) [1, 6] [fold]	Fold Enrichment relative to AAV9, Brain (NHP) [1, 7] [fold]	Fold Enrichment relative to AAV9, Heart (NHP) [1, 8] [fold]	Fold Enrichment relative to AAV9, Liver DNA (NHP) [1, 9] [fold]	Fold Enrichment relative to AAV9, Liver RNA (NHP) [1, 10] [fold]	Fold Enrichment relative to AAV9, Muscle (NHP) [1, 11] [fold]	Fold Enrichment relative to AAV9, Brain (Mouse) (brain; [12]) [fold]	Fold Enrichment relative to AAV9, Brain (Mouse) (brain; [13]) [fold]	further results
KTERGSGSPHSKAQNQQT	–	–	–	–	–	–	–	–	–	–	–	–	–	–	Fold Enrichment relative to AAV9, Brain (NHP) ([1]; NGS fold-enrichment of matured AAV capsid variants, NHP brain, RNA): 53.475 fold; Fold Enrichment relative to AAV9, DRG (NHP) ([1]; NHP DRG): 0.000 fold; Fold Enrichment relative to AAV9, Heart (NHP) ([1]; NHP heart): 0.030 fold; Fold Enrichment relative to AAV9, Liver DNA (NHP) ([1]; NHP liver, DNA): 0.175 fold; Fold Enrichment relative to AAV9, Liver RNA (NHP) ([1]; NHP liver, RNA): 1.416 fold; Fold Enrichment relative to AAV9, Muscle (NHP) ([1]; NHP muscle): 0.000 fold; Fold Enrichment relative to AAV9, Brain (Mouse) (brain; mouse brain): 85.368 fold
KTERISGSPHSKAQNQQT	103.692	0.000	0.000	0.000	0.370	0.062	0.000	103.692	0.000	0.370	0.062	0.000	89.637	89.637	–
KTERLSGSPHSKAQNQQT	95.857	0.000	0.000	0.004	0.260	0.126	0.005	95.857	0.004	0.260	0.126	0.005	102.372	102.372	–
KTERMSGSPHSKAQNQQT	–	0.000	–	–	–	–	–	74.910	0.000	0.151	0.100	0.000	122.812	–	–
KTERNSGSPHSKAQNQQT	99.892	0.000	0.000	0.000	0.107	0.000	0.000	99.892	0.000	0.107	0.000	0.000	87.392	87.392	–
KTERPSGSPHSKAQNQQT	75.669	0.000	0.000	0.029	0.156	0.000	0.000	75.669	0.029	0.156	0.000	0.000	73.894	73.894	–
KTERSSGSPHSKAQNQQT	–	0.000	–	–	–	–	–	74.853	0.071	0.056	1.036	0.000	125.538	–	–
KTERTSGSPHSKAQNQQT	112.957	0.000	0.000	0.009	0.207	1.128	0.000	112.957	0.009	0.207	1.128	0.000	117.374	117.374	–

From patent US20260250318A1, “COMPOSITIONS AND METHODS FOR CROSSING THE BLOOD BRAIN BARRIER” (VOYAGER THERAPEUTICS, INC., priority 2022, published 2026)
